Laboratory results as given in patent publication US20230416248A1, “COMPOUNDS AND USES THEREOF” (Foghorn Therapeutics Inc., priority 2020, published 2023).

What was measured:
BRG-1 = biological target: T1, BRG-1 (Homo sapiens, UniProt P51532); experiment: ATPase catalytic activity of BRG-1, ADP-Glo in vitro biochemical assay; conditions: ADP-Glo ATPase assay, 30 nM BRG-1, 400 μM ATP; read-out: BRG1 IC50
T1 construct: made in house; host or cells: High Five insect cells
Procedure, shortened: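 Once the ATPase reaction finished, leftover ATP was depleted over 40 minutes at room temperature. Generated ADP was next turned back into ATP during a 60-minute room-temperature step. Luciferase-derived light was then measured.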

BRM = biological target: T2, BRM (Homo sapiens, UniProt P51531); experiment: ATPase catalytic activity of BRM, ADP-Glo in vitro biochemical assay; conditions: for IC50: ADP-Glo ATPase assay, 30 nM BRM, 400 μM ATP; for Ratio*: ratio BRG1 IC50 / BRM IC50
T2 construct: made in house; host or cells: High Five insect cells
Procedure, shortened: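 ADP-Glo luminescence, after depletion of leftover ATP and conversion of ADP, reported the activity. The 1 h room-temperature reaction held 400 μM ATP, 20 nM salmon sperm DNA and 30 nM BRM in 20 mM Tris pH 8, 20 mM MgCl2, 50 mM NaCl, 0.1% Tween-20, 1 mM DTT.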

T1 sequence (P51532 whole entry): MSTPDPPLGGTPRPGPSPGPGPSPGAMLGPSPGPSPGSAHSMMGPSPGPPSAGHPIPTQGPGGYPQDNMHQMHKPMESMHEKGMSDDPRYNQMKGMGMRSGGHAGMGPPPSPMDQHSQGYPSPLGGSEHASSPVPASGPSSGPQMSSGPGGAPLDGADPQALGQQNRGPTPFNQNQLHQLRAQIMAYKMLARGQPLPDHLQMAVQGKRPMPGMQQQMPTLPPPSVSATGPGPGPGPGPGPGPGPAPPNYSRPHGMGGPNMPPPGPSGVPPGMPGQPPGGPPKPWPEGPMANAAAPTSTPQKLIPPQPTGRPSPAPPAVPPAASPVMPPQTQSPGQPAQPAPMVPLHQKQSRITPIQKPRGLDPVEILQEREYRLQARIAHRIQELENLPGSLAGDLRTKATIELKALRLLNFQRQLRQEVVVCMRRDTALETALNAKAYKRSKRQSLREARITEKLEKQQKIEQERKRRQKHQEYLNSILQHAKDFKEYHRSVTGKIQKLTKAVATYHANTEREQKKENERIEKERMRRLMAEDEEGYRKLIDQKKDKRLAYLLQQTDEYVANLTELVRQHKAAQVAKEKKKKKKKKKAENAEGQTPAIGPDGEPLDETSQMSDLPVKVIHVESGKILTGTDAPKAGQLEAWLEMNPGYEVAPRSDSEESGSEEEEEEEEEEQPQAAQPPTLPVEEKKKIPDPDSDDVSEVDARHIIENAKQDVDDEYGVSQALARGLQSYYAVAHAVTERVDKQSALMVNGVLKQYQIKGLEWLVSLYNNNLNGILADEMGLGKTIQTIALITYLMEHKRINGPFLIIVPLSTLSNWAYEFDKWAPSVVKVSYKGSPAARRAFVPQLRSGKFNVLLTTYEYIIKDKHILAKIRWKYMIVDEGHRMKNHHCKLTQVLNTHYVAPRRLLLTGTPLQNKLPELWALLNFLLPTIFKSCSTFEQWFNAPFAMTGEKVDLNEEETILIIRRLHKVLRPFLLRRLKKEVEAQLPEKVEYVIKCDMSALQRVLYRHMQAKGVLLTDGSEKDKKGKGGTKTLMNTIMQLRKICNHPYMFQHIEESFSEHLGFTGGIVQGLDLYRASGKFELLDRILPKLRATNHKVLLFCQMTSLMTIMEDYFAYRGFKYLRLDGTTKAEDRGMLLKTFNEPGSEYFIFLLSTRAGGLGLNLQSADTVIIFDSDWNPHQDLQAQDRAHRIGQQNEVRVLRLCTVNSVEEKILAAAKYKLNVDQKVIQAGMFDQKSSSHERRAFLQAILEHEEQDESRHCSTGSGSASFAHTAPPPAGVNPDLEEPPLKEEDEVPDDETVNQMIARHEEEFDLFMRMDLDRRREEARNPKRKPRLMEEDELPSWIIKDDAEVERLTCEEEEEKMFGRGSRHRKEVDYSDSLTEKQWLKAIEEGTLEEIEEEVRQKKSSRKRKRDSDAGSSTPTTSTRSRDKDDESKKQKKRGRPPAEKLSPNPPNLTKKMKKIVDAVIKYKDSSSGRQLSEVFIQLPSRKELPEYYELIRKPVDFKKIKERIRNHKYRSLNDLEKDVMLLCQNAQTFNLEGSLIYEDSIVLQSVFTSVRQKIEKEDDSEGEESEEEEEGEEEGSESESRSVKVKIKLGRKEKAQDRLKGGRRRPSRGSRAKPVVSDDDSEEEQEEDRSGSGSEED
T2 sequence (P51531 whole entry): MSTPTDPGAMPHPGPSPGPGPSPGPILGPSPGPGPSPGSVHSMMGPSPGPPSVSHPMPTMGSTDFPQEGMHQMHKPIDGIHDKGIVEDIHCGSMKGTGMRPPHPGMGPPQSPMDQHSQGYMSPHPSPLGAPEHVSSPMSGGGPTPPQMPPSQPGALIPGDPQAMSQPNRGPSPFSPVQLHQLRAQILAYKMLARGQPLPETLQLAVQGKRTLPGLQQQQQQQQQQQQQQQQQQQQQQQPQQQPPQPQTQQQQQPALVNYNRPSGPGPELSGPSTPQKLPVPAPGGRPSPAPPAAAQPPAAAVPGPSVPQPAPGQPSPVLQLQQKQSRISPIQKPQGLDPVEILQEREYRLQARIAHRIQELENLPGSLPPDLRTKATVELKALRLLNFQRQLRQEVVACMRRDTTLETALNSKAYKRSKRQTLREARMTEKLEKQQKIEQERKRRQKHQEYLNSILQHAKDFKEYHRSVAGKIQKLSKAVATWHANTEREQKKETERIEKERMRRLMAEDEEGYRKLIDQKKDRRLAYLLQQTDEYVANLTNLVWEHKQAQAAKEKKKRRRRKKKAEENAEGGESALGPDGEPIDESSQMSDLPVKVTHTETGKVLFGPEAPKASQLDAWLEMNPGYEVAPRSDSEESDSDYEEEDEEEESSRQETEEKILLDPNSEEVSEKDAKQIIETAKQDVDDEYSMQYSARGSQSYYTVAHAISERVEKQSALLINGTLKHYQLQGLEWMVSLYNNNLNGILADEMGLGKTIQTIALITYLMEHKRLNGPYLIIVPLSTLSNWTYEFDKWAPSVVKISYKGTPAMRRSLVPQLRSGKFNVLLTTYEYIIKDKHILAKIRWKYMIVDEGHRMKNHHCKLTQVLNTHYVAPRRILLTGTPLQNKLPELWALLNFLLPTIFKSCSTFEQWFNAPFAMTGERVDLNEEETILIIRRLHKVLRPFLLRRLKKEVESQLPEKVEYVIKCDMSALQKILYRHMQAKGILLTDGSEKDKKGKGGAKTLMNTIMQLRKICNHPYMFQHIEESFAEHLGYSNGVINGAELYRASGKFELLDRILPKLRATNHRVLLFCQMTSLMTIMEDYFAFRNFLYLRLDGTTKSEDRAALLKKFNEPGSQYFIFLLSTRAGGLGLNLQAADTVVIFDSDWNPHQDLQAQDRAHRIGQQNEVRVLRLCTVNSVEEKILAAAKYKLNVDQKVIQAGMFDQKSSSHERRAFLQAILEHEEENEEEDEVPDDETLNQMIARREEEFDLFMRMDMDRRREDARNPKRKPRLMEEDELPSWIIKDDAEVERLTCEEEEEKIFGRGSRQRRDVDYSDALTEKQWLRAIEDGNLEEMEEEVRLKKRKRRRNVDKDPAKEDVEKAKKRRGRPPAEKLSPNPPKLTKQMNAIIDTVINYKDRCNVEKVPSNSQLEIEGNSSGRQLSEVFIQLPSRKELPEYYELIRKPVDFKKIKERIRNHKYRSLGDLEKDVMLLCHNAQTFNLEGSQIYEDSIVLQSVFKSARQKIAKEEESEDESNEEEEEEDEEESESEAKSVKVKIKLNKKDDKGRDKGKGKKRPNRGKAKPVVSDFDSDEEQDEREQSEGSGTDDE

Compound	IC50 (BRG-1) [nM]	IC50 (BRM) [nM]	Ratio* (BRM)
CC1(C)CCN(c2ccc3cnc(CNC(=O)c4ccc5c(c4)S(=O)(=O)CCOC5)cc3n2)c2ncccc21 [Compound 752]	3810	1040	3.68
O=C(NCc1cc2nc(N3CCOc4cc(C5CCC5)cnc43)ccc2cn1)c1ccc2c(c1)S(=O)(=O)CCOC2 [Compound 753]	203	14.2	14.28
O=C(NCc1cc2nc(N3CCOc4cc(N5CCCC5)cnc43)ccc2cn1)c1ccc2c(c1)S(=O)(=O)CCOC2 [Compound 754]	192	19.1	10.04
O=C(NCc1cc2nc(N3CCOc4cnc(C5CC5)cc43)ccc2cn1)c1ccc2c(c1)S(=O)(=O)CCOC2 [Compound 755]	124	7.1	17.47
O=C(NCc1cc2nc(N3CCN(C4CC4)c4cc(C5CC5)cnc43)ccc2cn1)c1ccc2c(c1)S(=O)(=O)CCOC2 [Compound 756]	176	15.1	11.62
O=C(NCc1cc2nc(N3CCOc4cc(N5CCC(F)(F)C5)cnc43)ccc2cn1)c1ccc2c(c1)S(=O)(=O)CCOC2 [Compound 758]	507	35.6	14.23
O=C(NCc1cc2nc(N3CCCc4ccc(OCC5CCOC5)cc43)ccc2cn1)c1ccc2c(c1)S(=O)(=O)CCOC2 (stereo not drawn) [Compound 759]	53.3	5.3	9.97
O=C(NCc1cc2nc(N3CCOc4ccc(C5CC5)c(F)c43)ccc2cn1)c1ccc2c(c1)S(=O)(=O)CCOC2 [Compound 760]	62.2	8.8	7.05
COc1cncc2c1CCCN2c1ccc2cnc(CNC(=O)c3ccc4c(c3)S(=O)(=O)CCOC4)cc2n1 [Compound 761]	67.9	8.7	7.77
CN(C)c1cnc2c(c1)OCCN2c1ccc2cnc(CNC(=O)c3ccc4c(c3)S(=O)(=O)CCOC4)cc2n1 [Compound 763]	45.4	5.3	8.52
Cc1cc(F)c2c(c1)OCCN2c1ccc2cnc(CNC(=O)c3ccc4c(c3)S(=O)(=O)CCOC4)cc2n1 [Compound 764]	159	9.5	16.66
O=C(NCc1cc2nc(N3CCOc4cc(C5CC5)cc(F)c43)ccc2cn1)c1ccc2c(c1)S(=O)(=O)CCOC2 [Compound 765]	284	23.5	12.08
O=C(NCc1cc2nc(N3CCOc4ccc(C56CC(C5)C6)nc43)ccc2cn1)c1ccc2c(c1)S(=O)(=O)CCOC2 [Compound 766]	179	17.1	10.47
O=C(NCc1cc2nc(N3CCC(F)(F)c4cccnc43)ccc2cn1)c1ccc2c(c1)S(=O)(=O)CCOC2 [Compound 767]	194	17.4	11.17
COc1cc2c(cn1)CCCN2c1ccc2cnc(CNC(=O)c3ccc4c(c3)S(=O)(=O)CCOC4)cc2n1 [Compound 768]	126	10.7	11.76
C[C@@H]1CN(c2cccc(-c3ccc4cnc(CNC(=O)c5cnc6c(c5)S(=O)(=O)[C@@H](C)COC6)cc4c3)n2)C[C@H](C)O1 [Compound 769]	26.4	8.4	3.16
Cc1nc2c(cc1F)OCCN2c1ccc2cnc(CNC(=O)c3ccc4c(c3)S(=O)(=O)CCOC4)cc2n1 [Compound 770]	339	16.4	20.67
COc1cc(C2CC2)nc2c1CCCN2c1ccc2cnc(CNC(=O)c3ccc4c(c3)S(=O)(=O)CCOC4)cc2n1 [Compound 771]	172	10.5	16.35
COCCN1CCc2ccc(-c3ccc4cnc(CNC(=O)c5ccc6c(c5)S(=O)(=O)CCOC6)cc4n3)nc2C1 [Compound 772]	2880	397	7.26
O=C(NCc1cc2nc(N3CCOc4cc(Cl)cc(F)c43)ccc2cn1)c1cc(F)c2c(c1)S(=O)(=O)CCOC2 [Compound 773]	1170	38.5	30.25
COc1ccc2c(c1F)N(c1ccc3cnc(CNC(=O)c4ccc5c(c4)S(=O)(=O)CCOC5)cc3n1)CCO2 [Compound 774]	174	12	14.44
O=C(NCc1cc2nc(N3CCOc4cc(C5CC5)ccc43)ccc2nn1)c1ccc2c(c1)S(=O)(=O)CCOC2 [Compound 775]	152	12.5	12.13
COc1ccc2c(c1)N(c1ccc3cnc(CNC(=O)c4ccc5c(c4)S(=O)(=O)CCOC5)cc3n1)CCO2 [Compound 776]	100	6.3	15.77

Compound	IC50 (BRG-1) [nM]	IC50 (BRM) [nM]	Ratio* (BRM)
O=C(NCc1cc2nc(N3CCOc4cc(C(F)F)ncc43)ccc2cn1)c1ccc2c(c1)S(=O)(=O)CCOC2 [Compound 777]	981	74	13.26
C[C@@H]1CN(c2cccc(-c3ccc4cnc(CNC(=O)c5ccc6c(c5)S(=O)(=O)CCC(F)C6)cc4n3)n2)C[C@H](C)O1 (stereo partly drawn) [Compound 779]	11.7	5.5	2.13
O=C(NCc1cc2nc(N3CCCc4cnc(C5CC5)nc43)ccc2cn1)c1ccc2c(c1)S(=O)(=O)CCOC2 [Compound 780]	515	29	17.78
O=C(NCc1cc2nc(N3CCOc4cc(F)c(C(F)F)nc43)ccc2cn1)c1ccc2c(c1)S(=O)(=O)CCOC2 [Compound 781]	713	27.9	25.53
CN(c1cnc2c(c1)OCCN2c1ccc2cnc(CNC(=O)c3ccc4c(c3)S(=O)(=O)CCOC4)cc2n1)C1CC1 [Compound 782]	43.5	8.7	4.99
COc1ncc2c(c1F)N(c1ccc3cnc(CNC(=O)c4ccc5c(c4)S(=O)(=O)CCOC5)cc3n1)CCC2 [Compound 783]	444	31.1	14.27
Cc1c(C2CC2)cnc2c1OCCN2c1ccc2cnc(CNC(=O)c3ccc4c(c3)S(=O)(=O)CCOC4)cc2n1 [Compound 784]	212	24.6	8.62
O=C(NCc1cc2nc(N3CCCc4ncc(C5CC5)nc43)ccc2cn1)c1ccc2c(c1)S(=O)(=O)CCOC2 [Compound 785]	1330	85.8	15.49
O=C(NCc1cc2cc(N3CCOc4ccc(C5CC5)cc43)ccc2cn1)c1ccc2c(c1)S(=O)(=O)CCOC2 [Compound 787]	194	13.5	14.38
O=C(NCc1cc2nc(-c3ccc4c(n3)CN(C3CC3)CC4)ccc2cn1)c1ccc2c(c1)S(=O)(=O)CCOC2 [Compound 788]	4150	620	6.69
O=C(NCc1cc2cc(N3CCCc4cc(-c5cn[nH]c5)ccc43)ccc2cn1)c1ccc2c(c1)S(=O)(=O)CCOC2 [Compound 789]	30.3	5.9	5.10
CN(C)c1cnc2c(c1)OCCN2c1ccc2cnc(CNC(=O)c3ccc4c(c3)S(=O)(=O)CCOC4)cc2c1 [Compound 790]	61.4	12.2	5.03
O=C(NCc1cc2nc(N3CCCc4cc5c(cc43)OCO5)ccc2cn1)c1ccc2c(c1)S(=O)(=O)CCOC2 [Compound 792]	135	13.7	9.88
O=C(NCc1cc2nc(N3CCCc4cc5c(cc43)OCCO5)ccc2cn1)c1ccc2c(c1)S(=O)(=O)CCOC2 [Compound 793]	140	11.8	11.88
COCc1cc2c(c(F)c1Cl)N(c1ccc3cnc(CNC(=O)c4ccc5c(c4)S(=O)(=O)CCOC5)cc3n1)CCO2 [Compound 794]	30.4	6.6	4.60
O=C(NCc1cc2nc(N3CCOc4ccc(C5(F)CC5(F)F)nc43)ccc2cn1)c1ccc2c(c1)S(=O)(=O)CCOC2 (stereo not drawn) [Compound 795]	4110	122	33.67
COCc1cc(F)c2c(c1)OCCN2c1ccc2cnc(CNC(=O)c3ccc4c(c3)S(=O)(=O)CCOC4)cc2n1 [Compound 796]	272	20.8	13.06
O=C(NCc1cc2nc(-c3cccc(N4CC(C5(F)COC5)C4)n3)ccc2cn1)c1ccc2c(c1)S(=O)(=O)CCOC2 [Compound 797]	190	18.8	10.11
O=C(NCc1cc2cc(N3CCOc4cc(N5CCOCC5)cnc43)ccc2cn1)c1ccc2c(c1)S(=O)(=O)CCOC2 [Compound 798]	43.8	7.4	5.90
O=C(NCc1cc2cc(N3CCOc4ccc(C(F)F)nc43)ccc2cn1)c1ccc2c(c1)S(=O)(=O)CCOC2 [Compound 799]	663	25.5	26.04
O=C(NCc1ncc2ccc(N3CCOc4cc(C5CC5)cnc43)cc2n1)c1ccc2c(c1)S(=O)(=O)CCOC2 [Compound 800]	636	169	3.77
O=C(NCc1cc2cc(N3CCOc4cc(C5CC5)cnc43)cnc2cn1)c1ccc2c(c1)S(=O)(=O)CCOC2 [Compound 801]	1440	111	13.00
COc1c(F)cnc2c1CCCN2c1ccc2cnc(CNC(=O)c3ccc4c(c3)S(=O)(=O)CCOC4)cc2n1 [Compound 802]	67.1	8.1	8.31
